Where two headings read alike, the source gives them in different places.
Assays:
[1] = female, 129sv DHP-1 knockout, mouse, in vivo
in vivo [2] = settings: female, CD-1, mouse
E. coli = experiment: Microbial spectrum, E. coli; format: cell-based, Escherichia coli; settings: clavulanate 4 μg/mL; Table S4
in vivo [3] = settings: female, 129sv DHP-1 knockout, mouse, sc, 50 mg/kg
in vivo [4] = settings: DHP-1 knockout, mouse, sc, 300 mg/kg
S. aureus = experiment: Microbial spectrum, S. aureus; format: cell-based, Staphylococcus aureus; settings: clavulanate 4 μg/mL; Table S4
P. aeruginosa = experiment: Microbial spectrum, P. aeruginosa; format: cell-based, Pseudomonas aeruginosa; settings: clavulanate 4 μg/mL; Table S4
in vitro [5] = settings: SD, rat, plasma, pH 7.4, % bound to plasma
in vitro [6] = settings: beagle, dog, plasma, pH 7.4
in vitro [7] = settings: male, CD-1, mouse, plasma, Plasma stability % Remaining
in vitro [8] = settings: cynomolgus monkey, plasma, pH 7.4
Mtb H37Rv [9] = experiment: MIC90 against replicating (R) Mtb H37Rv, with or without clavulanate; format: cell-based, Mycobacterium tuberculosis; settings: Table S4; for Mtb H37Rv R + CLAV (MIC90): clavulanate 4 μg/mL; for Mtb H37Rv R (MIC90): no clavulanate
in vitro [10] = settings: human, plasma, pH 7.4, % bound to plasma
in vitro [11] = settings: monkey, plasma
C. albicans = experiment: Microbial spectrum, C. albicans; format: cell-based, Candida albicans; settings: no clavulanate; Table S4
[12] = 300 mg/kg sc, uninfected DHP-1 mice
in vitro [13] = settings: beagle, dog, plasma
physchem [14] = settings: simulated gi fluid, pH 6.5, FaSSIF Stability, % remaining
physchem [15] = settings: simulated gi fluid, pH 1.2
in vitro [16] = settings: human; for Papp A→B at 120 min, 3 μM / Papp B→A at 120 min, 3 μM: Caco-2, pH 7.4
in vitro [17] = settings: SD, rat, plasma, Plasma stability % Remaining
in vitro [18] = settings: human, plasma, Plasma stability % Remaining
Mtb H37Rv [19] = experiment: MIC90 against nonreplicating (NR, 4-stress) Mtb H37Rv, with or without clavulanate; format: cell-based, Mycobacterium tuberculosis; settings: 4-stress nonreplicating, Table S4; for Mtb H37Rv NR + CLAV (MIC90): clavulanate 4 μg/mL; for Mtb H37Rv NR (MIC90): no clavulanate
in vitro [20] = settings: CD-1, mouse, plasma, pH 7.4, % bound to plasma
HepG2 cells = experiment: Cytotoxicity against HepG2 cells (CellTiter-Glo); format: cell-based, human; settings: Table S4
Method: Compounds were tested for cytotoxicity against HepG2 cells as previously described.[48],[69],[70] Briefly, cells were exposed to compounds for 48–72 h, and viability was measured using CellTiter-Glo (Promega).

wild-type Mtb H37Rv = format: in vivo, 129sv DHP-1 knockout mice; settings: for Log10 CFU per mouse (lungs), Mean: 50 mg/kg sc bid + clavulanate 100 mg/kg po bid, days 9-15, lungs day 16, untreated day 16 mean 9.1
[21] = Caco-2, pH 7.4, Caco-2 Mean Recovery % A to B
[22] = Caco-2, pH 7.4, Caco-2 Mean Recovery % B to A

## CN(C)C(=S)SCC1=C(C(=O)O)N2C(=O)[C@@H](NC(=O)Cc3cccs3)[C@H]2SC1 [TBBL-0000009]
[1]
  Tlast: 6.0 h
In vivo [2]; iv, 5 mg/kg
  AUC(0-t): 20300 ng·h/mL
  Vd: 0.18 L/kg
  clearance: 4.25 mL/min/kg
  half-life: 30 min
  k el: 0.000389 s⁻¹
In vivo [2]; po, 25 mg/kg
  AUC(0-t): 1360 ng·h/mL
  bioavailability: 1.33%
E. coli
  E.coli R + CLAV (MIC90): > 100 µM
In vivo [3]
  AUC(0-t): 975 ng·h/mL
  Cmax: 380 ng/mL
  Tmax: 30 min
In vivo [4]
  AUC(0-t): 8810 ± 675 ng·h/mL
  Cmax: 2650 ± 266 ng/mL
  Tmax: 120 to 240 min
S. aureus
  S.aureus R + CLAV (MIC90): 1 µM
P. aeruginosa
  P.aeruginosa R + CLAV (MIC90): > 100 µM
In vitro [5]
  fraction unbound at 4 h, 2 μM: 0.022
In vitro [6]
  fraction unbound at 4 h, 2 μM: 0.084
In vitro [7]
  remaining at 2 h, 2 μM: 93%
In vitro [8]
  fraction unbound at 4 h, 2 μM: 0.047
Mtb H37Rv [9]
  Mtb H37Rv R + CLAV (MIC90): 4 µM
  Mtb H37Rv R (MIC90): 8 µM
Caco-2 cells
  Caco-2 Rank Papp: Moderate
In vitro [10]
  fraction unbound at 4 h, 2 μM: 0.034
In vitro [11]
  remaining at 2 h, 2 μM: 133%
C. albicans
  C.albicans R (MIC90): > 100 µM
[12]
  Tlast: 4.0 h
In vitro [13]
  remaining at 2 h, 2 μM: 104%
Physchem [14]; 6h
  remaining at 6 h, 10 μM: 85.3%
Physchem [14]
  remaining at 24 h, 10 μM: 90.9%
Physchem [15]
  remaining at 1 h, 10 μM: 31.7%
  remaining at 24 h, 10 μM: 9.96%
In vitro [16]
  Papp A→B at 120 min, 3 μM: < 0.5 ×10⁻⁶ cm/s
  Papp B→A at 120 min, 3 μM: < 0.43 ×10⁻⁶ cm/s
In vitro [16]; [21]
  recovery at 120 min, 3 μM: < 98.3%
In vitro [16]; [22]
  recovery at 120 min, 3 μM: < 103%
In vitro [17]
  remaining at 2 h, 2 μM: 95.8%
In vitro [18]
  remaining at 2 h, 2 μM: 97.9%
Mtb H37Rv [19]
  Mtb H37Rv NR + CLAV (MIC90): > 100 µM
  Mtb H37Rv NR (MIC90): > 100 µM
In vitro [20]
  fraction unbound at 4 h, 2 μM: 0.095
HepG2 cells
  HepG2 LD50: 6.6 µM
wild-type Mtb H37Rv
  Log10 CFU per mouse (lungs), Mean: 8.7 Log10 CFU
wild-type Mtb H37Rv; mouse, in vivo
  reduction of lung CFU compared to untreated control mice: ~0.4 log10

## O=C(Cc1cccs1)N[C@@H]1C(=O)N2C(C(=O)O)=C(CSc3cccc[n+]3[O-])CS[C@H]12 [TBBL-0000001]
[1]
  Tlast: 3.0 h
In vivo [2]; iv, 5 mg/kg
  AUC(0-t): 5590 ng·h/mL
  Vd: 0.32 L/kg
  clearance: 7.4 mL/min/kg
  half-life: 30 min
  k el: 0.000389 s⁻¹
In vivo [2]; po, 25 mg/kg
  AUC(0-t): 111 ng·h/mL
  bioavailability: 0.19%
E. coli
  E.coli R + CLAV (MIC90): 26.9 µM
In vivo [3]
  AUC(0-t): 38100 ng·h/mL
  Cmax: 27800 ng/mL
  Tmax: 60 min
In vivo [4]
  AUC(0-t): 43000 ± 1680 ng·h/mL
  Cmax: 29800 ± 7140 ng/mL
  Tmax: 60 min
S. aureus
  S.aureus R + CLAV (MIC90): 0.6 µM
P. aeruginosa
  P.aeruginosa R + CLAV (MIC90): > 100 µM
In vitro [5]
  fraction unbound at 4 h, 2 μM: 0.369
In vitro [6]
  fraction unbound at 4 h, 2 μM: 0.529
In vitro [7]
  remaining at 2 h, 2 μM: 79.6%
In vitro [8]
  fraction unbound at 4 h, 2 μM: 0.166
Mtb H37Rv [9]
  Mtb H37Rv R + CLAV (MIC90): 1.7 µM
  Mtb H37Rv R (MIC90): 3 µM
Caco-2 cells
  Caco-2 Rank Papp: Low
In vitro [10]
  fraction unbound at 4 h, 2 μM: 0.22
In vitro [11]
  remaining at 2 h, 2 μM: 117%
C. albicans
  C.albicans R (MIC90): > 100 µM
[12]
  Comments (tolerability): Recovered at t= 8h
  Tlast: 2.0 to 4.0 h
In vitro [13]
  remaining at 2 h, 2 μM: 54.7%
Physchem [14]
  remaining at 24 h, 10 μM: 114%
Physchem [15]
  remaining at 1 h, 10 μM: 102%
  remaining at 24 h, 10 μM: 116%
In vitro [16]
  Papp A→B at 120 min, 3 μM: < 0.04 ×10⁻⁶ cm/s
  Papp B→A at 120 min, 3 μM: < 0.03 ×10⁻⁶ cm/s
In vitro [16]; [21]
  recovery at 120 min, 3 μM: < 93.1%
In vitro [16]; [22]
  recovery at 120 min, 3 μM: < 99.8%
In vitro [17]
  remaining at 2 h, 2 μM: 80.6%
In vitro [18]
  remaining at 2 h, 2 μM: 77.3%
Mtb H37Rv [19]
  Mtb H37Rv NR + CLAV (MIC90): 2.2 µM
  Mtb H37Rv NR (MIC90): 1.8 µM
In vitro [20]
  fraction unbound at 4 h, 2 μM: 0.374
HepG2 cells
  HepG2 LD50: 67.5 µM
wild-type Mtb H37Rv
  Log10 CFU per mouse (lungs), Mean: 8.8 Log10 CFU

— PMC8922279, “Identification of β-Lactams Active against Mycobacterium tuberculosis by a Consortium of Pharmaceutical Companies and Academic Institutions” (ACS Infectious Diseases, 2022)
